Data from the supplement of paper PMC10307832.

Assays:
Assay in all cases: relative viability (nuclei count vs DMSO), 5 days (fraction); higher = more cells survive
BI-D1870 + Linsitinib = compound: CC(C)CCN1c2nc(Nc3cc(F)c(O)c(F)c3)ncc2N(C)C(=O)C1C [BI-D1870] + C[C@]1(O)C[C@@H](c2nc(-c3ccc4ccc(-c5ccccc5)nc4c3)c3c(N)nccn32)C1 [Linsitinib] (partner 1 µM)
In short: (§1)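 Lung cancer cell lines, seeded in 1536-well plates, were treated the following day by pin tool with a single drug or with five library-drug doses (not always all listed) in √10 steps on top of a fixed anchor-drug dose. Cells were fixed and nuclei stained in one step after 5 days, and nuclei were counted. Relative viability is the nuclei count for treated wells divided by that for vehicle wells, reported as medians of duplicate plates.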

BI-D1870 + Phenformin = compound: CC(C)CCN1c2nc(Nc3cc(F)c(O)c(F)c3)ncc2N(C)C(=O)C1C [BI-D1870] + N=C(N)NC(=N)NCCc1ccccc1 [Phenformin] (partner 250 µM)
In short: as §1

BI-D1870 + OSI-027 = compound: CC(C)CCN1c2nc(Nc3cc(F)c(O)c(F)c3)ncc2N(C)C(=O)C1C [BI-D1870] + COc1cccc2cc(-c3nc([C@H]4CC[C@H](C(=O)O)CC4)n4ncnc(N)c34)[nH]c12 [OSI-027] (partner 0.5 µM)
In short: as §1

Zebularine + Luminespib = compound: O=c1ncccn1[C@@H]1O[C@H](CO)[C@@H](O)[C@H]1O [Zebularine] + CCNC(=O)c1noc(-c2cc(C(C)C)c(O)cc2O)c1-c1ccc(CN2CCOCC2)cc1 [Luminespib] (partner 0.01 µM)
In short: as §1

Cell Line	relative viability (BI-D1870 + Linsitinib; first compound 0.04 µM)	relative viability (BI-D1870 + Linsitinib; first compound 0.1265 µM)	relative viability (BI-D1870 + Linsitinib; first compound 0.4 µM)	relative viability (BI-D1870 + Linsitinib; first compound 1.265 µM)	relative viability (BI-D1870 + Linsitinib; first compound 4 µM)	relative viability (BI-D1870 + Phenformin; first compound 0.04 µM)	relative viability (BI-D1870 + Phenformin; first compound 0.1265 µM)	relative viability (BI-D1870 + Phenformin; first compound 0.4 µM)	relative viability (BI-D1870 + Phenformin; first compound 1.265 µM)	relative viability (BI-D1870 + Phenformin; first compound 4 µM)	relative viability (BI-D1870 + OSI-027; first compound 0.04 µM)	relative viability (BI-D1870 + OSI-027; first compound 0.1265 µM)	relative viability (BI-D1870 + OSI-027; first compound 0.4 µM)	relative viability (BI-D1870 + OSI-027; first compound 1.265 µM)	relative viability (BI-D1870 + OSI-027; first compound 4 µM)	relative viability (Zebularine + Luminespib; first compound 1 µM)	relative viability (Zebularine + Luminespib; first compound 3.162 µM)	relative viability (Zebularine + Luminespib; first compound 10 µM)	relative viability (Zebularine + Luminespib; first compound 31.62 µM)	relative viability (Zebularine + Luminespib; first compound 100 µM)
NCI-H2126	0.724	0.712	0.694	0.73	0.677	0.525	0.493	0.508	0.53	0.511	0.74	0.64	0.671	0.716	0.58	1.01	0.85	0.889	0.795	0.379
HOP-62	1.25	0.997	1.13	1.04	0.91	0.705	0.657	0.719	0.823	0.664	0.993	0.819	0.791	0.849	0.699	0.991	0.906	0.263	0.296	0.178
CAL-12T	0.935	0.559	0.749	0.79	0.704	0.647	0.452	0.583	0.461	0.302	0.593	0.449	0.477	0.599	0.303	0.49	0.717	0.244	0.355	0.582
NCI-H520	1	0.846	0.985	0.803	0.678	0.514	0.596	0.584	0.537	0.429	0.226	0.205	0.252	0.291	0.2	0.262	0.261	0.186	0.246	0.192
NCI-H1755	0.982	0.975	1.04	0.967	0.941	0.651	0.62	0.647	0.688	0.573	0.705	0.714	0.651	0.847	0.683	0.481	0.426	0.39	0.522	0.44
NCI-H2023	0.72	0.507	0.569	0.605	0.543	0.487	0.367	0.408	0.416	0.308	0.456	0.298	0.323	0.319	0.223	0.942	1.04	0.301	0.448	0.174
NCI-H2009	1.29	1.13	1.23	1.13	0.881	0.546	0.457	0.456	0.329	0.222	0.742	0.571	0.615	0.559	0.255	1.09	1.04	0.793	0.859	0.3
